Source: patent US8598374B2, “GPR120 receptor agonists and uses thereof” (Metabolex, Inc, priority 2008, dated 2013)

Each compound was assayed against T1, human GPR120 (Homo sapiens, UniProt Q5NUL3) (assay: Intracellular Ca2+ assay (FLIPR Calcium 4, Flexstation) in human GPR120 stable cell line). Settings: % activity at 2.5 μM compared to the maximal activity of the compound of Example 25 at 2.5 μM; HEK293 cells co-expressing Gqi5.
T1 construct: Flag (DYKDDDDK) (N); host or cells: HEK293 cells co-expressing Gqi5
T1 sequence (Q5NUL3 1-361): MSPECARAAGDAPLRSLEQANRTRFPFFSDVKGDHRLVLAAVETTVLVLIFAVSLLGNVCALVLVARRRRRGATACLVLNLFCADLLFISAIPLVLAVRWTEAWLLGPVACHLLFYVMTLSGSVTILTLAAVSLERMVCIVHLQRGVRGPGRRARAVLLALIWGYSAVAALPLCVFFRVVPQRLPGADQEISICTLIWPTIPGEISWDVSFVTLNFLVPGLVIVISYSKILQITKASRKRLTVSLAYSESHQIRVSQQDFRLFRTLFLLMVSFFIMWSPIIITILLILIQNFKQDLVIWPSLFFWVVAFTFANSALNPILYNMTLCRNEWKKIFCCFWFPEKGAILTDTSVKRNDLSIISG
Assay type: cell-based
Protocol: Human GPR120 stable cell line was purchased from Multispan Inc (26219 Eden Landing Road, Hayward, Calif. 94545). This GPR120 cell line was generated in HEK293 cells co-expressing Gqi5. In this cell line, the Flag epitope tag (DYKDDDDK) was fused to the amino terminus of human GPR120 protein.
The concentration of intracellular Ca^2+ was measured as described below. Human GPR120 cells were plated in 96 well plates (Poly-D-Lysine coated black/clear Plate, Greiner Bio-One) at 70,000 cells per well and cultured overnight in conditions of 37° C. and 5% CO2. A Ca^2+ assay dye stock solution was prepared by adding 10 mL of assay buffer (HBSS/20 mM HEPES, pH 7.4) to FLIPR Calcium 4 Assay Bulk Kit (Molecular Devices). The 10 mL of Ca^2+ assay dye solution was prepared by further diluting 0.5 mL of Ca^2+ assay dye stock solution with 10 mL of assay buffer. The medium of the cells was removed and immediately 100 μL of the Ca^2+ assay dye solution was dispensed into each well followed by incubation at 37° C. and 5% CO2 for 50 minutes to incorporate the Ca^2+ dye into the cells. The cell plate was then placed in the Flexstation (Molecular Devices) for 20 minutes at 37° C. Compounds were dissolved in 100% DMSO and diluted to desired concentrations with assay buffer and placed in the Flexstation simultaneously with the cell plate for 20 minute incubation at 37° C. prior to reading. Fluorescence intensity was measured immediately following compound addition (25 μL/well) on the Flexstation at an excitation wavelength of 485 nm and an emission wavelength of 525 with 515 nm auto cutoff. The resulting increase in fluorescence intensities corresponds to increases in intracellular Ca^2+ levels.
Compounds were dissolved in 100% DMSO to a concentration of 20 mM to provide stock solutions. To determine activity against human GPR120, compounds were added with human GPR120 stably expressing cells (described above), at eight desired concentrations ranging from 0.00001 to 20 μM, in 96 well plates and fluorescence intensities were measured for 90 seconds with 2-second intervals. An EC50 value (concentration of the GPR120 agonist where 50% of the agonist's maximal activity is observed) was calculated using the changes (Max-Min) of fluorescence intensity.
To determine percent activity for a tested compound, the fluorescence intensity value obtained at a particular concentration were compared to the maximal fluorescence intensity value obtained for reference compound GW9508 (4-[[(3-phenoxyphenyl)methyl]amino]benzene propanoic acid; British Journal of Pharmacology 2006 148, 619-628) or the compound of Example 25. When GW9508 was used as the reference compound, the maximal activity of GW9508 at 6.7 μM was designated as 100% activity. When the compound of Example 25 was used as the reference compound, the maximal activity of the compound of Example 25 at 2.5 μM was designated as 100% activity. Typically, the GW9508 activity reached a maximum at a concentration of approximately 6.7 μM and typically the compound of Example 25 reached a maximum activity at approximately 2.5 μM.

| SMILES | % Activity (Ex. 25 Reference Compound) |
| --- | --- |
| CC(Cc1ccc(OCc2cc(Cl)cc3c2OC(C)(C)C3=O)c(C(F)(F)F)c1)C(=O)O (stereo not shown) [Example 79, 3-(4-((5-chloro-2,2-dimethyl-3-oxo-2,3-dihydrobenzofuran-7-yl)methoxy)-3-(trifluoromethyl)phenyl)-2-methylpropanoic acid] | 3.85% |
| Cc1cc(CCC(=O)O)c(C)c(C)c1OCc1cc(F)cc2c1OC(C)(C)C2 [Example 254, 3-(4-((5-fluoro-2,2-dimethyl-2,3-dihydrobenzofuran-7-yl)methoxy)-2,3,5-trimethylphenyl) propanoic acid] | 146.14% |
| CC(Cc1ccc(OCc2cc(F)cc3c2OC(C)(C)C3)cc1)C(=O)NO (stereo not shown) [Example 264, 3-(4-((5-fluoro-2,2-dimethyl-2,3-dihydrobenzofuran-7-yl)methoxy)phenyl)-N-hydroxy-2-methylpropanamide] | 110.24% |
| [2H]C([2H])(Oc1ccc(CC(C)C(=O)O)cc1F)c1cc(F)cc2c1OC(C)(C)C2 (stereo not shown) [Example 230, 3-(4-(dideuterio(5-fluoro-2,2-dimethyl-2,3-dihydrobenzofuran-7-yl)methoxy)-3-fluorophenyl)-2-methylpropanoic acid] | 86.25% |
| CC1(C)Cc2cc(Cl)cc(COc3ccc4c(c3)CC(C(=O)O)C4)c2O1 (stereo not shown) [Example 112, 5-((5-chloro-2,2-dimethyl-2,3-dihydrobenzofuran-7-yl)methoxy)-2,3-dihydro-1H-indene-2-carboxylic acid] | 115.42% |
| CC(Cc1cc(F)c(OCc2cc(OCc3ccccc3)cc3c2OC(C)(C)C3)c(F)c1)C(=O)O (stereo not shown) [Example 111, 3-(4-((5-(benzyloxy)-2,2-dimethyl-2,3-dihydrobenzofuran-7-yl)methoxy)-3,5-difluorophenyl)-2-methylpropanoic acid] | 51.55% |
| CC(Cc1ccc(OCc2cc(Cl)cc3c2OCC3(C)C)cc1)C(=O)O (stereo not shown) [Example 148, 3-(4-((5-chloro-3,3-dimethyl-2,3-dihydrobenzofuran-7-yl)methoxy)phenyl)-2-methylpropanoic acid] | 113.89% |
| CC1(C)Cc2cc(F)cc(COc3c(F)cc(CC4CC4C(=O)O)cc3F)c2O1 (stereo not shown) [Example 184, 2-(3,5-difluoro-4-((5-fluoro-2,2-dimethyl-2,3-dihydrobenzofuran-7-yl)methoxy)benzyl)cyclopropanecarboxylic acid] | 97.04% |
| [2H]C([2H])(Oc1ccc(CC(C)C(=O)O)cc1C(F)(F)F)c1cc(F)cc2c1OC(C)(C)C2 (stereo not shown) [Example 231, 3-(4-(dideuterio(5-fluoro-2,2-dimethyl-2,3-dihydrobenzofuran-7-yl)methoxy)-3-(trifluoromethyl)phenyl)-2-methylpropanoic acid] | 101.01% |
| CC1(C)Cc2cc(F)cc(COc3c(F)cc(CC4CC4C(=O)O)cc3F)c2O1 (single isomer, unassigned) [Example 184B, 2-(3,5-difluoro-4-((5-fluoro-2,2-dimethyl-2,3-dihydrobenzofuran-7-yl)methoxy)benzyl)cyclopropanecarboxylic acid] | 130.66% |
| Cc1cc(OCc2cc(F)cc3c2OC(C)(C)C3)ccc1CCC(=O)O [Example 46, 3-(4-((5-fluoro-2,2-dimethyl-2,3-dihydrobenzofuran-7-yl)methoxy)-2-methylphenyl)propanoic acid] | 113.55% |
| CC(C)Oc1ccc(Cl)cc1COc1ccc2c(c1)CCC2CC(=O)O (stereo not shown) [Example 258, 2-(5-((5-chloro-2-isopropoxybenzyl)oxy)-2,3-dihydro-1H-inden-1-yl)acetic acid] | 139.95% |
| Cc1cc2cccc(COc3ccc4c(c3)CCC4CC(=O)O)c2s1 (stereo not drawn) [Example 152, 2-(5-((2-methylbenzo[α]thiophen-7-yl)methoxy)-2,3-dihydro-1H-inden-1-yl)acetic acid] | 83.81% |
| CC1(C)Cc2cc(F)cc(COc3ccc4c(c3)CC[C@@H]4CC(=O)O)c2O1 [Example 178, (R)-2-(5-((5-fluoro-2,2-dimethyl-2,3-dihydrobenzofuran-7-yl)methoxy)-2,3-dihydro-1H-inden-1-yl)acetic acid] | 106% |
| C[C@H](Cc1ccc(OCc2cc(Cl)cc3c2OC(C)(C)C3)c(C(F)(F)F)c1)C(=O)O [Example 143, (R)-3-(4-((5-chloro-2,2-dimethyl-2,3-dihydrobenzofuran-7-yl)methoxy)-3-(trifluoromethyl)phenyl)-2-methylpropanoic acid] | 90.56% |
| CC1(C)Cc2cc(F)cc(COc3cc(Cl)c(CCC(=O)O)c(Cl)c3)c2O1 [Example 197, 3-(2,6-dichloro-4-((5-fluoro-2,2-dimethyl-2,3-dihydrobenzofuran-7-yl)methoxy)phenyl)propanoic acid] | 151.44% |
| CC1(C)Cc2cc(F)cc(COc3ccc4c(c3)CC[C@H]4CC(=O)O)c2O1 [Example 175, (S)-2-(5-((5-fluoro-2,2-dimethyl-2,3-dihydrobenzofuran-7-yl)methoxy)-2,3-dihydro-1H-inden-1-yl)acetic acid] | 152.44% |
| Cc1cc(OCc2cc(F)cc3c2OC(C)(C)C3)c(C)cc1CCC(=O)O [Example 206, 3-(4-((5-fluoro-2,2-dimethyl-2,3-dihydrobenzofuran-7-yl)methoxy)-2,5-dimethylphenyl)propanoic acid] | 111.45% |
| CC(Cc1ccc(OCc2cc(-n3cnnn3)cc3c2OC(C)(C)C3)cc1)C(=O)O (stereo not shown) [Example 90, 3-(4-((2,2-dimethyl-5-(1H-tetrazol-1-yl)-2,3-dihydrobenzofuran-7-yl)methoxy)phenyl)-2-methylpropanoic acid] | 75.86% |

Same assay, conditions: human GPR120 stably expressing cells, eight concentrations from 0.00001 to 20 μM

| SMILES | EC50 |
| --- | --- |
| CC1(C)Cc2cc(Cl)cc(COc3ccc(CCC(=O)O)c(C(F)(F)F)c3)c2O1 [Example 62, 3-(4-((5-chloro-2,2-dimethyl-2,3-dihydrobenzofuran-7-yl)methoxy)-2-(trifluoromethyl)phenyl)propanoic acid] | 1 to 10 µM |
| CC1(C)Cc2cc(F)cc(COc3cc(F)c(CCC(=O)O)c(F)c3)c2O1 [Example 49, 3-(2,6-difluoro-4-((5-fluoro-2,2-dimethyl-2,3-dihydrobenzofuran-7-yl)methoxy)phenyl)propanoic acid] | 1 to 10 µM |
| Cc1cc(OCc2cc(F)cc3c2OC(C)(C)C3)ccc1CCC(=O)O [Example 46, 3-(4-((5-fluoro-2,2-dimethyl-2,3-dihydrobenzofuran-7-yl)methoxy)-2-methylphenyl)propanoic acid] | 1 to 10 µM |
| CC1(C)Cc2cc(F)cc(COc3ccc(SCC(=O)O)cc3)c2O1 [Example 58, 2-((4-((5-fluoro-2,2-dimethyl-2,3-dihydrobenzofuran-7-yl)methoxy)phenyl)thio)-acetic acid] | 1 to 10 µM |
| CC1(C)Cc2cc(F)cc(COc3ccc(CCC(=O)O)c(C(F)(F)F)c3)c2O1 [Example 61, 3-(4-((5-fluoro-2,2-dimethyl-2,3-dihydrobenzofuran-7-yl)methoxy)-2-(trifluoromethyl)phenyl)propanoic acid] | 1 to 10 µM |
| CC(Cc1ccc(OCc2cc(-n3cnnn3)cc3c2OC(C)(C)C3)cc1)C(=O)O (stereo not shown) [Example 90, 3-(4-((2,2-dimethyl-5-(1H-tetrazol-1-yl)-2,3-dihydrobenzofuran-7-yl)methoxy)phenyl)-2-methylpropanoic acid] | 1 to 10 µM |
